# Laboratory results taken from patent US5869500A, “Pyridone compounds useful in treating Alzheimer's disease” (Hoffmann-La Roche Inc., priority 1996, dated 1999).
# What was measured:
# [1] = system: Aβ production in HEK cells over-expressing mutated β-APP (SFAD); assay: Aβ production inhibition, sandwich-ELISA in HEK cells, over-expressed mutated β-APP (SE-SFAD); type: cell-based, human; conditions: for IC50: based on the respective plateau of maximum inhibition; for Emax: read-out: SE-SFAD max. inhibition %
# How it was run: (§1)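 HEK cells expressing recombinant human wild-type or mutated (SFAD) β-APP treated with compound for 24 to 48 hours at 37° C, 10% CO2. IC50 based on plateau of maximum inhibition.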
# [2] = system: Aβ production in HEK cells over-expressing Wild type β-APP; assay: Aβ production inhibition, sandwich-ELISA in HEK cells which over-express Wild type β-APP (SE-WT); type: cell-based, human; conditions: Homo sapiens; for IC50: HEK293, based on the respective plateau of maximum inhibition; for Emax: HEK293, maximum inhibition plateau, read-out: SE-WT max. inhibition %
# How it was run: as §1
# [3] = Homo sapiens, HEK293, HEK cells
# [4] = Homo sapiens, HEK293, HEK cells, maximum inhibition plateau
Compound,"IC50 [1, 3]","Emax [1, 4]",IC50 [2],Emax [2],IC50 ([1]; HEK cells),"SE-SFAD max. inhibition % ([1]; HEK cells, maximum inhibition plateau)"
"COCCN(C(=O)c1cc(-c2ccc(OCc3ccccc3)cc2)c(=O)n2ccc3cc(I)sc3c12)c1ccccc1 [Compound 81, 8-(4-Benzyloxy-phenyl)-2-iodo-7-oxo-7H-thieno[2,3-a]quinolizine-10-carboxylic acid (2-methoxy-ethyl)-phenyl-amide]",< 1000 nM,50%,1200 nM,100%,–,–
"COC(=O)c1cc(-c2ccc(C(C)(C)C)cc2)c(=O)n2ccc3ccsc3c12 [Compound 106, Methyl 8-(4-tert-butyl-phenyl)-7-oxo-7H-thieno[2,3-a]quinolizine-10-carboxylate]",2300 nM,85%,800 nM,95%,–,–
"CCCN(CCOC)C(=O)c1cc(-c2ccc(C(C)(C)C)cc2)c(=O)n2ccc3ccsc3c12 [Compound 108, 8-(4-tert-Butyl-phenyl)-7-oxo-7H-thieno[2,3-a]quinolizine-10-carboxylicacid (2-methoxy-ethyl)-propyl-amide]",1400 nM,100%,1000 nM,100%,–,–
"COCCN(CCOC)C(=O)c1cc(-c2ccc(C(C)(C)C)cc2)c(=O)n2ccc3ccsc3c12 [Compound 109, 8-(4-tert-Butyl-phenyl)-7-oxo-7H-thieno[2,3-a]quinolizine-10-carboxylicacid bis-(2-methoxy-ethyl)-amide]",7700 nM,100%,800 nM,100%,–,–
"COc1cccc(-c2cc(C(=O)NCc3ccccc3)c3c4sccc4ccn3c2=O)c1 [Compound 116, 8-(3-Methoxy-phenyl)-7-oxo-7H-thieno[2,3-a]quinolizine-10-carboxylic acid benzyl-amide]",800 nM,100%,1000 nM,60 to 80%,–,–
"COC(=O)c1cc(-c2ccccc2OC)c(=O)n2ccc3ccsc3c12 [Compound 129, Methyl 8-(2-methoxy-phenyl)-7-oxo-7H-thieno[2,3-a]quinolizine-10-carboxylate]",–,–,1500 nM,85%,2800 nM,75%
